Reference: patent US20050208036A1, “Methods for treating or preventing GVHD” (University of North Carolina at Chapel Hill, priority 2003, published 2005)
Values joined by “and” are separate entries in the source; they are usually repeats but may differ in a detail not shown here. Equal values may be shown once.

What was measured:
[1] = tested on: alloreactive transgenic T cells; test: T cell apoptosis in MLR of alloreactive and non-alloreactive transgenic T cells, Annexin V binding; type: cell-based; settings: 10 μM, 1:1 alloreactive and non-alloreactive transgenic T cells
Source text: (§1) The tolerance induced by PS1145 was specific to alloantigen, as responses to non-specific mitogens remained largely intact.

[2] = tested on: donor CD4+ T cells from C57BL/6 mice with irradiated bm12 splenocytes; test: Mixed lymphocyte reaction (MLR): proliferative response of T cells to alloantigen, 3H-thymidine incorporation; type: cell-based, mouse
Protocol: (§2) A bulk MLR was prepared by combining donor CD4^+ T cells obtained from C57BL/6 (H-2^b) mice (National Institutes of Health, Bethesda, Md., U.S.A.) in a 1:1 ratio with T cell-depleted, irradiated splenocytes obtained from bm12 (H-2^bm12), MHC class II disparate mice (The Jackson Laboratory, Bar Harbor, Me., U.S.A.). An anti-CD40L monoclonal antibody (hybridoma MR1, hamster IgG), obtained by culturing the hybridoma in 10% FBS/DMEM in an Accusyst Jr. hollow fiber bioreactor (Cellex Biosciences, Minneapolis, Minn., U.S.A.), was added to the bulk MLR culture and the cells were incubated for 7-10 days. Proliferative responses of the T cells to alloantigen were determined on days 2, 4, 5, 6, and 7 by measuring ^3H-thymidine incorporation into newly synthesized DNA. The antibody removed from the cultures by washing three times with 2% FBS/PBS, and aliquots of the cells (0.3×10^5, 10^5, and 3×10^5 cells) were administered in 0.5 mL DMEM by tail vein injection to bm12 mice subjected to a sublethal dose (6.0 Gy) of total body irradiation. Control irradiated mice received the same amounts of cells from MLR that had not been exposed to anti-CD40L. The mice were monitored for GVHD lethality, weight changes, and packed cell volume (PCV). Cells remaining from the primary MLR were mixed with fresh bm12 splenocytes for a secondary MLR, and proliferative responses to allogen were measured on days 1 through 5. Aliquots of the secondary MLR cultures were subsequently administered to irradiated bm12 mice.
An MLR culture was prepared consisting of a 1:1 ratio of CD4+ T cells obtained from C57BL/6 mice and T cell-depleted, irradiated MHC class II-disparate stimulators obtained from bm12 mice. PS1145, a potent inhibitor of IκB kinase and thus NF-κB activation, was added to the MLR culture at concentrations of 0.2 μM, 0.6 μM, 1 μM, 2 μM, 6 μM, and 10 μM. Control MLR cultures were left untreated or were treated with DMSO. […] This hyporesponsiveness persisted after washing of the T cells and re-exposure to alloantigen. As with anti-CD40L treated MLR, alloantigen hyporesponsiveness was reversed by addition of 50 U/mL exogenous IL-2 (FIG. 7).
as §1
CD4^+ CD25^+ cells were required in cultures tolerized by anti-CD40L. To determine whether CD25^+ T cells, which express the high-affinity IL-2 receptor a chain (IL-2Rα), were required for PS 1145 induction of tolerance, CD25^+-depleted T cells were used in primary and secondary MLR. […] Similarly, CD4^+ CD25^+ T cells were not required for tolerance induction by PS1145 in secondary cultures.

bm12 mice = test: GVHD lethality after transfer of MLR cells into sublethally irradiated MHC class II disparate recipients; type: in vivo, mouse
Protocol: as §2
CD4^+ T cells that were allowed to recover from a vehicle-treated 7 day MLR were uniformly fatal upon adoptive transfer into sublethally irradiated MHC class-II disparate recipients, whereas T cells subjected to ex vivo PS1145 treatment were lethal to only 22% of recipients. Mice were intravenously injected with either 10^5 naïve T cells, 10^5 cells from 7 day control MLR or 10^5 cells from MLR exposed to 6 μM or 10 μM PS1145 for 7 days. […] Thus, the NF-κB pathway is a critical regulator of T cell responses, and provides an ex vivo approach to inducing alloantigen-specific tolerance as a means of preventing GVHD.

TNF-α [3] = test: LPS-induced TNF-α expression in mice, ELISA; type: in vivo, B6 and BALB/c mice; settings: 1 μg/kg LPS; 10, 25 or 50 mg/kg oral; 24-72 hours post-treatment; vs controls
Protocol: (§3) B6 and BALB/c mice were given 1 μg/kg of LPS, after which they orally received either control methylcellulose or PS1145 in methylcellulose. Animals were evaluated for expression of the cytokine TNF-α and the chemokine MIP-1α (CCL3) at 24-72 hours post-treatment, as assessed by ELISA.

TNF-α [4] = test: TNF-α levels in colon and small intestine after transplant, cytokine bead assay; type: in vivo, mouse; settings: 5 mg/kg i.p. on days −1 and −2, days 3-18, vs untreated
Protocol: (§4) Expression of TNF-α and MIP-1α (CCL3) was evaluated in mice treated i.p. with PS1145 and subjected to transplantation of T cell-depleted bone marrow with Thy 1-selected splenocytes as a source of T cells. Mice in the test group received 5 mg/kg PS1145 on days −1 and −2 relative to transplant, while control animals were untreated. Animals were sacrificed from days 3-18 for assessment of TNF-α levels in the colon and small intestine and MIP-1α levels in the liver. A cytokine bead assay was used to measure levels of these factors. […] While TNF-α levels in control animals increased from day 3 to day 18, the level was relatively constant in animals exposed to PS1145.

MIP-1α (CCL3) [5] = test: LPS-induced MIP-1α (CCL3) expression in mice, ELISA; type: in vivo, B6 and BALB/c mice; settings: 1 μg/kg LPS; 10, 25 or 50 mg/kg oral; 24-72 hours post-treatment; vs controls
Protocol: as §3

B6D2 recipient mice = test: Murine stem cell transplant GVHD model, survival; type: in vivo, mouse
Protocol: A murine stem cell transplant model was developed in which bone marrow was removed from B6 (H2^b) donors. The marrow was depleted of T cells by incubation with an anti-Thy 1.2 monoclonal antibody coupled to magnetic beads, followed by removal of T cells that bound the antibody using a magnetic column. Thy 1.2^+ T cells were isolated from splenocytes using a similar approach and were added back to the bone marrow. Animals received between 1-5×10^6 T cells and 3×10^6 bone marrow cells after lethal irradiation. The T cell-depleted marrow was transplanted into B6D2H2^bxd recipient mice that had been subjected to a lethal dose of irradiation (8.5 Gy). Recipient mice were divided into six groups, three of which received 1 mg PS1145 starting on day −2, day 0, or day 6 relative to transplant. The other three groups received methylcellulose as a control, starting on day −2, 0, or 6. PS1145 suspended in methylcellulose or methylcellulose alone was administered daily by gavage, through day 14. Mice were evaluated every three days for weight loss, GVHD, and outcome. […] Treatment with PS1145 that started on day 6 was correlated with an earlier death (all mice were dead by about day 12) as compared to treatment that started on day 0 (all mice were dead by about day 28). All mice in the methylcellulose control group were dead by day 20.
In a similar experiment, recipient mice were subjected to 1125 cGy of irradiation and then treated with oral doses of 5 mg/kg methylcellulose or PS1145. In this case, however, all animals in both groups were dead by about day 42 post-transplant (FIG. 12). […] Thus, the use of PS1145 to ameliorate GVHD via an oral route was not effective using very heavy doses of irradiation.
Experiments also were performed in which 5 mg/kg PS1145 or methylcellulose was given intraperitoneally (i.p.) to mice starting on day −2 and ending on day 14 post-transplantation. B6D2 mice that had received 850 cGy of irradiation were injected with 3×10^6 bone marrow cells from B6 donors and 5×10^6 selected B6 T cells.

MIP-1α (CCL3) [6] = test: MIP-1α levels in liver after transplant, cytokine bead assay; type: in vivo, mouse; settings: 5 mg/kg i.p. on days −1 and −2, days 3-18, vs untreated
Protocol: as §4

NEMO = NEMO (Homo sapiens, UniProt Q9Y6K9); test: NBD mutants: ability to bind to NEMO; type: binding
[7] = 5 mg/kg i.p. day −2 to day 14, 850 cGy
[8] = oral 5 mg/kg, 1125 cGy irradiation

NEMO, sequence (Q9Y6K9 whole entry, species assumed): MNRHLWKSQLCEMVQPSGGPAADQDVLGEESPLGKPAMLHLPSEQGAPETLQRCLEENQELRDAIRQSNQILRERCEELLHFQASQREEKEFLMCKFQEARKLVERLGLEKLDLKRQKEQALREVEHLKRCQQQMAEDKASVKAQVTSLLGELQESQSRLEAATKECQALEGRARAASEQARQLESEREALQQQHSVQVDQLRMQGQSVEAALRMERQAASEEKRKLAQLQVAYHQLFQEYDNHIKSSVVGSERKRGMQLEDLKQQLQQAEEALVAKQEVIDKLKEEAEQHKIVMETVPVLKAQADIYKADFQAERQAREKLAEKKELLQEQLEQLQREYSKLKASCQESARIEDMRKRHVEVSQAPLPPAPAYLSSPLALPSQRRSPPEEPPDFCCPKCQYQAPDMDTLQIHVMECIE

## O=C(Nc1cc(Cl)cc2c1[nH]c1cnccc12)c1cccnc1 [PS1145]
[1]
  rate of T cell apoptosis: increased the rate of T cell apoptosis selectively in alloreactive cells
[2]; 10 μM, re-exposed to allogeneic APC
  response on re-exposure to allogeneic APC: remained hyporesponsive
[2]; 10 μM, secondary stimulus CD3+ and CD28+ cells
  proliferation after secondary stimulus of CD3+ and CD28+ cells: comparable to controls
[2]; 50 U/mL exogenous IL-2 added
  alloantigen hyporesponsiveness with exogenous IL-2: reversed
[2]; MLR treated with 6 μM and 10 μM
  T cell proliferation in response to alloantigen: reduced level of proliferation
[2]; after washing, re-exposure to alloantigen
  hyporesponsiveness after washing of the T cells and re-exposure to alloantigen: persisted
bm12 mice; 10^5 cells i.v. from MLR exposed to 6 μM for 7 days
  Long term survival (>90 days): five of eight and 5/8
bm12 mice; 10^5 cells i.v. from MLR exposed to 10 μM for 7 days
  Long term survival (>90 days): nine of ten and 9/10
bm12 mice; T cells treated ex vivo, adoptive transfer
  recipients to which treated T cells were lethal: 22%
bm12 mice; recipients of donor T cells treated ex vivo
  long-term survival rate: 78%
TNF-α [3]
  TNF-α expression: markedly reduced
TNF-α [4]
  TNF-α expression in colon and small intestine: significantly decreased
MIP-1α (CCL3) [5]
  MIP-1α (CCL3) expression: markedly reduced
B6D2 recipient mice; 1 mg daily by gavage from day 0 through day 14, 8.5 Gy
  day by which all mice were dead: ~28 days
B6D2 recipient mice; 1 mg daily by gavage from day 6 through day 14, 8.5 Gy
  day by which all mice were dead: ~12 days
B6D2 recipient mice; 1 mg daily by gavage from day −2 through day 14, 8.5 Gy
  mice surviving at least through day 50: about 20%
B6D2 recipient mice; [7]
  Survival Day 30: 7/10
  Survival Day 60: 5/10
  survival of B6D2 mice: 50%
B6D2 recipient mice; [8]
  day post-transplant by which all animals were dead: ~42 days
  survival time compared with methylcellulose group: little difference
MIP-1α (CCL3) [6]
  MIP-1α levels in the liver: Analogous results

## ADWSWL (Hexapeptide variant of human IKK-beta NBD (SEQ ID NO2) having A in the 1st position.) [NBD mutant]
NEMO
  Binds to NEMO: Yes

## LAWSWL (Hexapeptide variant of human IKK-beta NBD (SEQ ID NO2) having A in the 2nd position.) [NBD mutant]
NEMO
  Binds to NEMO: No

## LDASAL (Hexapeptide variant of human IKK-beta NBD (SEQ ID NO2) having A in the 3rd and 5th positions.) [NBD mutant]
NEMO
  Binds to NEMO: No

## LDASWL (Hexapeptide variant of human IKK-beta NBD (SEQ ID NO2) having A in the 3rd position.) [NBD mutant]
NEMO
  Binds to NEMO: No

## LDFSWL (Hexapeptide variant of human IKK-beta NBD (SEQ ID NO2) having F in the 3rd position.) [NBD mutant]
NEMO
  Binds to NEMO: Yes

## LDSWSL (listed as Homo sapiens)
NEMO
  Binds to NEMO: Yes

## LDWAWL (Hexapeptide variant of human IKK-beta NBD (SEQ ID NO2) having A in the 4th position.) [NBD mutant]
NEMO
  Binds to NEMO: Yes

## LDWEWL (Hexapeptide variant of human IKK-beta NBD (SEQ ID NO2) having E in the 4th position.) [NBD mutant]
NEMO
  Binds to NEMO: Yes

## LDWSAL (Hexapeptide variant of human IKK-beta NBD (SEQ ID NO2) having A in the 5th position.) [NBD mutant]
NEMO
  Binds to NEMO: No

## LDWSFL (Hexapeptide variant of human IKK-beta NBD (SEQ ID NO2) having F in the 5th position.) [NBD mutant]
NEMO
  Binds to NEMO: Yes

## LDWSWA (Hexapeptide variant of human IKK-beta NBD (SEQ ID NO2) having A in the 6th position.) [NBD mutant]
NEMO
  Binds to NEMO: Yes

## LDWSYL (Hexapeptide variant of human IKK-beta NBD (SEQ ID NO2) having Y in the 5th position.) [NBD mutant]
NEMO
  Binds to NEMO: No

## LDYSWL (Hexapeptide variant of human IKK-beta NBD (SEQ ID NO2) having Y in the 3rd position.) [NBD mutant]
NEMO
  Binds to NEMO: Yes

## LEWSWL (Hexapeptide variant of human IKK-beta NBD (SEQ ID NO2) having E in the 2nd position.) [NBD mutant]
NEMO
  Binds to NEMO: Yes

## LNWSWL (Hexapeptide variant of human IKK-beta NBD (SEQ ID NO2) having N in the 2nd position.) [NBD mutant]
NEMO
  Binds to NEMO: Yes
